Measurements as given in PMC10535219, “Discovery and Potential Utility of a Novel Non-Invasive Ocular Delivery Platform” (Pharmaceutics, 2023).
Like-named read-outs stand apart in the source and are kept apart here. Blank lines part the entries; values can stand above or below the compound they belong to.

Tests used:
[1] = tested on: COX-2; design: method as in PMID 22765297, PMID 24005906; conditions: COX-2 signaling cascade; cited from earlier work
[2] = tested on: IL-1β production; design: method as in PMID 29352206; conditions: human THP-1 macrophage cell line; read-out: IC50 for reducing IL-1β production; cited from earlier work
[3] = design: method as in PMID 35250585; conditions: once-daily intragastric administration; mice; cited from earlier work
[4] = design: method as in PMID 32434914; conditions: dietary supplementation; mouse model with advanced AMD pathologies; cited from earlier work
[5] = tested on: photoreceptors; design: method as in PMID 23723389; conditions: rat retinal neuronal cultures; by activating RXRs; cited from earlier work
[6] = Biodisposition of JV-DE1 eye drops in New Zealand rabbits (LC-MS/MS of plasma and ocular tissues); format: in vivo; conditions: rabbit; for Cmax / concentration at 0.5 h / concentration at 3 h / concentration at 6 h / concentration at 24 h: New Zealand; for Cmax: topical or ocular
Experimental: The in-life procedures and sample collections were performed at Joinn Laboratory Inc. (Suzhou, China). A single dose of 50 µL (120 µg) per eye of the 0.24% JV-DE1 eye drops was applied to both eyes of the animals at time 0 using a pipet. This dose was chosen based on the maximum amount deliverable as an eye drop. Blood samples were collected from all five study animals at 0 h pre-dosing. […] Plasma samples were collected before each euthanization.
Sample preparation and bioanalysis were performed at Medicilon Preclinical Research LLC (Shanghai, China). Solid ocular tissues were homogenized with 9- to 49-fold (1 g tissue in 9 mL to 49 mL, w/v) of cold homogenization buffer (50% methanol/H2O). Aliquots of plasma or aqueous humor, as well as the homogenized tissue samples, were mixed with 8-fold volumes of 200 ng/mL warfarin in a methanol solution. After vortexing and centrifuging, an aliquot of supernatants was transferred to a 96-well plate for LC-MS/MS analysis. JV-DE1 is a synthesized new chemical entity (NCE). The absence of the endogenous compound was verified by JeniVision with a battery of pre-clinical GLP and non-GLP studies, including analytical studies in monkey, dog, and rabbit tissues.
The liquid chromatography (LC) system comprised a Waters (Waters Corporation, Milford, CT, USA) Ultra Performance Liquid Chromatography (UPLC) equipped with an ACQUITY UPLC binary solvent manager, an ACQUITY UPLC sample manager, an ACQUTIY UPLC sample organizer, and an ACQUITY UPLC column heater HT. The mass spectrometric (MS) analysis was performed using a Triple Quad 6500+ (Applied Biosystems/MDS Sciex, Concord, ON, Canada) with an ESI ion source. The data acquisition and control system were created using Analyst 1.6.3 and 1.7.1 Software from Applied Biosystems/MDS Sciex. The LC/MS conditions for JV-DE1 are described in Supplementary Table S1a–c.

[7] = biological target: human IP receptor; design: method as in PMID 16331286; conditions: cited from earlier work
[8] = single eye drop 120 μg/eye OD, 0.5 h
[9] = single eye drop 120 μg/eye OD, 3 h
[10] = single eye drop 120 μg/eye OD, 6 h
[11] = single eye drop 120 μg/eye OD, 24 h

Structure (SMILES): CC/C=C\C/C=C\C/C=C\C/C=C\C/C=C\C/C=C\CCC(=O)O [JV-MD2, cis-4,7,10,13,16,19-docosahexaenoic acid]
IC50 [1]: 18 µM
IC50 [2]: 4.6 µM
laser-induced CNV formation [3]: effectively inhibited laser-induced CNV formation
effect on AMD pathologies [4]: alleviated most pathologies
protective effect on photoreceptors [5]: induced a protective effect

Cmax ([6]; anterior sclera, 120 ug, eye drop 120 µg/eye, read-out: Cmax in anterior sclera): 1790 ng/g
concentration at 0.5 h ([6]; anterior sclera, topical, 120 µg/eye, single eye drop 120 μg/eye OD, 0.5 h, read-out: Drug in OD Tissues, Anterior sclera): 1790 ng/g
concentration at 3 h ([6]; anterior sclera, topical, 120 µg/eye, single eye drop 120 μg/eye OD, 3 h, read-out: Drug in OD Tissues, Anterior sclera): 926 ng/g
concentration at 6 h ([6]; anterior sclera, topical, 120 µg/eye, single eye drop 120 μg/eye OD, 6 h, read-out: Drug in OD Tissues, Anterior sclera): 1480 ng/g
concentration at 24 h ([6]; anterior sclera, topical, 120 µg/eye, single eye drop 120 μg/eye OD, 24 h, read-out: Drug in OD Tissues, Anterior sclera): 93.2 ng/g
Cmax ([6]; bulbar conjunctiva, 120 ug, eye drop 120 µg/eye, read-out: Cmax in bulbar conjunctiva): ~16000 ng/g
Cmax ([6]; ciliary body/iris, 120 ug, eye drop 120 µg/eye, read-out: Cmax in ciliary body/iris): 305 ng/g
concentration at 0.5 h ([6]; ciliary body/iris, topical, 120 µg/eye, single eye drop 120 μg/eye OD, 0.5 h, read-out: Drug in OD Tissues, Ciliary body/iris): 105 ng/g
concentration at 3 h ([6]; ciliary body/iris, topical, 120 µg/eye, single eye drop 120 μg/eye OD, 3 h, read-out: Drug in OD Tissues, Ciliary body/iris): 305 ng/g
concentration at 6 h ([6]; ciliary body/iris, topical, 120 µg/eye, single eye drop 120 μg/eye OD, 6 h, read-out: Drug in OD Tissues, Ciliary body/iris): 231 ng/g
concentration at 24 h ([6]; ciliary body/iris, topical, 120 µg/eye, single eye drop 120 μg/eye OD, 24 h, read-out: Drug in OD Tissues, Ciliary body/iris): 28.9 ng/g
concentration at 0.5 h ([6]; conjunctiva, other: eye drop applied to the eye, single eye drop 120 μg/eye OD, 0.5 h, read-out: Drug in OD Tissues, Conjunctiva): 16500 ng/g
concentration at 3 h ([6]; conjunctiva, other: eye drop applied to the eye, single eye drop 120 μg/eye OD, 3 h, read-out: Drug in OD Tissues, Conjunctiva): 5180 ng/g
concentration at 6 h ([6]; conjunctiva, other: eye drop applied to the eye, single eye drop 120 μg/eye OD, 6 h, read-out: Drug in OD Tissues, Conjunctiva): 566 ng/g
concentration at 24 h ([6]; conjunctiva, other: eye drop applied to the eye, single eye drop 120 μg/eye OD, 24 h, read-out: Drug in OD Tissues, Conjunctiva): 994 ng/g
Cmax ([6]; cornea, 120 ug, eye drop 120 µg/eye, read-out: Cmax in cornea): ~12000 ng/g
concentration at 0.5 h ([6]; cornea, topical, 120 µg/eye, single eye drop 120 μg/eye OD, 0.5 h, read-out: Drug in OD Tissues, Cornea): 12100 ng/g
concentration at 3 h ([6]; cornea, topical, 120 µg/eye, single eye drop 120 μg/eye OD, 3 h, read-out: Drug in OD Tissues, Cornea): 5950 ng/g
concentration at 6 h ([6]; cornea, topical, 120 µg/eye, single eye drop 120 μg/eye OD, 6 h, read-out: Drug in OD Tissues, Cornea): 5130 ng/g
concentration at 24 h ([6]; cornea, topical, 120 µg/eye, single eye drop 120 μg/eye OD, 24 h, read-out: Drug in OD Tissues, Cornea): 542 ng/g
concentration at 0.5 h ([6]; plasma, other: eye drop applied to the eye, single eye drop 120 μg/eye OD, 0.5 h, read-out: Drug in plasma): 1 ng/mL
concentration at 3 h ([6]; plasma, other: eye drop applied to the eye, single eye drop 120 μg/eye OD, 3 h, read-out: Drug in plasma): 0.3 ng/mL
concentration at 6 h ([6]; plasma, other: eye drop applied to the eye, single eye drop 120 μg/eye OD, 6 h, read-out: Drug in plasma): 0.1 ng/mL
Cmax ([6]; posterior sclera, 120 ug, eye drop 120 µg/eye, read-out: Cmax in posterior sclera): 240 ng/g
concentration at 0.5 h ([6]; posterior sclera, topical, 120 µg/eye, single eye drop 120 μg/eye OD, 0.5 h, read-out: Drug in OD Tissues, Posterior sclera): 209 ng/g
concentration at 3 h ([6]; posterior sclera, topical, 120 µg/eye, single eye drop 120 μg/eye OD, 3 h, read-out: Drug in OD Tissues, Posterior sclera): 240 ng/g
concentration at 6 h ([6]; posterior sclera, topical, 120 µg/eye, single eye drop 120 μg/eye OD, 6 h, read-out: Drug in OD Tissues, Posterior sclera): 151 ng/g
concentration at 24 h ([6]; posterior sclera, topical, 120 µg/eye, single eye drop 120 μg/eye OD, 24 h, read-out: Drug in OD Tissues, Posterior sclera): 64.5 ng/g
Cmax ([6]; retina, 120 µg per eye, eye drop administration, read-out: retinal Cmax): 297 nM
Cmax ([6]; retina, 120 ug, eye drop 120 µg/eye, read-out: Cmax in retina): 92 ng/g
concentration at 0.5 h ([6]; retina, topical, 120 µg/eye, single eye drop 120 μg/eye OD, 0.5 h, read-out: Drug in OD Tissues, Retina): 92 ng/g
concentration at 3 h ([6]; retina, topical, 120 µg/eye, single eye drop 120 μg/eye OD, 3 h, read-out: Drug in OD Tissues, Retina): 49.1 ng/g
concentration at 6 h ([6]; retina, topical, 120 µg/eye, single eye drop 120 μg/eye OD, 6 h, read-out: Drug in OD Tissues, Retina): 58.9 ng/g
concentration at 24 h ([6]; retina, topical, 120 µg/eye, single eye drop 120 μg/eye OD, 24 h, read-out: Drug in OD Tissues, Retina): 6.8 ng/g
Cmax ([6]; vitreous humor, 120 ug, eye drop 120 µg/eye, read-out: Cmax in vitreous humor): 2.6 ng/mL
concentration at 0.5 h ([6]; vitreous humor, topical, 120 µg/eye, single eye drop 120 μg/eye OD, 0.5 h, read-out: Drug in vitreous humor): 2.6 ng/mL
concentration at 3 h ([6]; vitreous humor, topical, 120 µg/eye, single eye drop 120 μg/eye OD, 3 h, read-out: Drug in vitreous humor): 1.7 ng/mL
concentration at 6 h ([6]; vitreous humor, topical, 120 µg/eye, single eye drop 120 μg/eye OD, 6 h, read-out: Drug in vitreous humor): 1.2 ng/mL
concentration at 24 h ([6]; vitreous humor, topical, 120 µg/eye, single eye drop 120 μg/eye OD, 24 h, read-out: Drug in vitreous humor): 0.4 ng/mL
maximum ocular delivery efficiency (% administered dose), anterior sclera ([6]; eye drop 120 µg/eye): 0.2982%
maximum ocular delivery efficiency (% administered dose), ciliary body/iris ([6]; eye drop 120 µg/eye): 0.0174%
maximum ocular delivery efficiency (% administered dose), conjunctiva ([6]; eye drop 120 µg/eye): 1.3929%
maximum ocular delivery efficiency (% administered dose), cornea ([6]; eye drop 120 µg/eye): 0.8622%
maximum ocular delivery efficiency (% administered dose), retina ([6]; eye drop 120 µg/eye): 0.0047%
maximum ocular delivery efficiency (% administered dose), vitreous humor ([6]; eye drop 120 µg/eye): 0.0023%
drug concentration in the plasma ([6]; eye drop 120 µg/eye, throughout 0.5, 3 and 6 h post-dose): no more than 0.001 µg/mL
% Administered Dose, Anterior sclera [6, 8]: 0.2982%
% Administered Dose, Ciliary body/iris [6, 8]: 0.0084%
% Administered Dose, Conjunctiva [6, 8]: 1.3929%
% Administered Dose, Cornea [6, 8]: 0.8622%
% Administered Dose, Posterior sclera [6, 8]: 0.0153%
% Administered Dose, Retina [6, 8]: 0.0047%
% Administered Dose, Vitreous humor [6, 8]: 0.0023%
% Administered Dose, Anterior sclera [6, 9]: 0.1068%
% Administered Dose, Ciliary body/iris [6, 9]: 0.0174%
% Administered Dose, Conjunctiva [6, 9]: 0.4477%
% Administered Dose, Cornea [6, 9]: 0.4239%
% Administered Dose, Posterior sclera [6, 9]: 0.0323%
% Administered Dose, Retina [6, 9]: 0.0036%
% Administered Dose, Vitreous humor [6, 9]: 0.0012%
% Administered Dose, Anterior sclera [6, 10]: 0.2139%
% Administered Dose, Ciliary body/iris [6, 10]: 0.0137%
% Administered Dose, Conjunctiva [6, 10]: 0.1288%
% Administered Dose, Cornea [6, 10]: 0.3709%
% Administered Dose, Posterior sclera [6, 10]: 0.0197%
% Administered Dose, Retina [6, 10]: 0.0037%
% Administered Dose, Vitreous humor [6, 10]: 0.0007%
% Administered Dose, Anterior sclera [6, 11]: 0.0127%
% Administered Dose, Ciliary body/iris [6, 11]: 0.0021%
% Administered Dose, Conjunctiva [6, 11]: 0.1467%
% Administered Dose, Cornea [6, 11]: 0.0254%
% Administered Dose, Posterior sclera [6, 11]: 0.0088%
% Administered Dose, Retina [6, 11]: 0.0004%
% Administered Dose, Vitreous humor [6, 11]: 0.0004%
Drug in plasma ([6]; single eye drop 120 μg/eye OD, 24 h, LLOQ 0.0001 µg/mL): BLQ
Structure (SMILES): CC(C)Oc1ccc(Cc2ccc(NC3=NCCN3)cc2)cc1 [JV-DE1, 4,5-dihydro-N-[4-[[4-(1-methylethoxy)phenyl]methyl]phenyl]-1H-imadazol-2-amine]
Ki [7]: 0.0005 µM
pKi [7]: 9.3
